12 compounds from US10487071B2, “Bis-triazole compounds with anti-biofilm and anti-corrosion properties” (Université de Toulon, priority 2015, dated 2019) can be followed below.

Experiment [1] has as its system Pseudoalteromonas lipolytica (TC8). In words: Anti-adhesion test, strain TC8. As to conditions: Pseudoalteromonas lipolytica; for activity at 200 µM: 15 h, read-out: % of adhesion at 200 μM, TC8; for EC50: read-out: EC50 (effective concentration to inhibit 50% of the adhesion), TC8. Type of experiment: cell-based. The procedure: (§1) The anti-adhesion bioassays and toxicity tests are adapted from those disclosed in M. Camps, J.-F. Briand, L. Guentas-Dombrowsky, G. Culioli, A. Bazire and Y. Blache, Mar. Poll.
(§2) Bacterial strains were grown on Väätänen nine-salts solution (VNSS). When the stationary phase was reached, the bacterial suspension was centrifuged. Cells were then diluted in sterile artificial sea water (ASW) and introduced in microtiter plates (sterile black PS; Nunc, Fisher Scientific, France) with the tested compound (at eight concentrations in three replicates) in the presence of three controls: (i) non-specific staining control, (ii) adhesion control, and (iii) positive control. The maximum percentage of solvent (DMSO 2%) used to dilute the tested compound was also tested in triplicate as additional control. After incubation during an optimized adhesion time (moderately 15 h), non-adhered bacteria were eliminated and adhered cells were quantified after SYTO 61 (1 μM) staining. A percentage of inhibition was calculated per well. A sigmoid dose-response curve was obtained by plotting the percentage of inhibition as a function of the log of tested compound concentration, after mean (n=3) and standard deviation (SD) calculation per triplicate for each concentration. EC50 values were then calculated for each compound.

Experiment [2] in a line: Gravimetry (weight loss), corrosion inhibition. As to conditions: mild steel in 1N HCl. The procedure:
The corrosion rates were determined by electrochemical impedance spectroscopy measurements and gravimetry.
Weight loss measurements were performed on 2.5×2.0×0.1 cm rectangular mild steel coupons. The mild steel coupons were immersed into non-de-aerated HCl 1N solution in absence and presence of different concentrations of compounds of general formula (I). After the elapsed time, the coupons were taken out, washed, dried and weighed accurately. Experiments were duplicated.
Weight loss experiments were done to confirm the corrosion inhibitive properties of AS164.
The inhibition efficiency, IE (%), was estimated from the weight loss experiments using the following equation:
[formula] wherein CR^o and CR are respectively the corrosion rate in the absence and presence of AS164.

In experiment [3] the test system is Pseudoalteromonas ulvae (TC14). In words: Anti-adhesion test, strain TC14. The experiment is classed as cell-based. As to conditions: Pseudoalteromonas ulvae; for activity at 200 µM: 15 h; for EC50: read-out: EC50 (effective concentration to inhibit 50% of the adhesion). The procedure: as §2
Pseudoalteromonas ulvae (TC14) was isolated in June 2010 in the Military Harbor of Toulon (Mediterranean Sea, France) as described in F. Brian-Jaisson, A. Ortalo-Magné, L. Guentas-Dombrowsky, F. Armougom, Y. Blache, M. Molmeret, Microb. Ecol., 2014, 68, 94-110.

Another experiment has as its system Paracoccus sp. (4M6). In words: Anti-adhesion test, strain 4M6. As to conditions: Paracoccus; for activity at 200 µM: 15 h, read-out: % of adhesion at 200 μM, 4M6; for EC50: read-out: EC50 (effective concentration to inhibit 50% of the adhesion), 4M6. Type of experiment: cell-based. The procedure: as §1, §2
Another experiment relates to Polaribacter sp. (TC5). In words: Anti-adhesion test, strain TC5. Type of experiment: cell-based. Particulars: for activity at 200 µM: 15 h. The method, then:
as §2
Polaribacter sp. (TC5) was isolated in June 2010 in the Military Harbor of Toulon (Mediterranean Sea, France) as described in F. Brian-Jaisson, A. Ortalo-Magné, L. Guentas-Dombrowsky, F. Armougom, Y. Blache, M. Molmeret, Microb. Ecol., 2014, 68, 94-110.

The next experiment relates to Shewanella sp. (TC11). In words: Anti-adhesion test, strain TC11. The experiment is classed as cell-based. As to conditions: for activity at 200 µM: 15 h, strain TC11, read-out: % of adhesion at 200 μM, TC11; for EC50: read-out: EC50 (effective concentration to inhibit 50% of the adhesion), strain TC11. The procedure: as §2
Shewanella sp. (TC11) was isolated in June 2010 in the Military Harbor of Toulon (Mediterranean Sea, France) as described in F. Brian-Jaisson, A. Ortalo-Magné, L. Guentas-Dombrowsky, F. Armougom, Y. Blache, M. Molmeret, Microb. Ecol., 2014, 68, 94-110.

Each structure is given as a SMILES string.

As to `CN(C)CCOc1ccc(CCn2cc(CCCCc3cn(CCc4ccc(OCCN(C)C)c(Br)c4)nn3)nn2)cc1Br` [AS159, 2-(4-(2-(4-(4-(1-(4-(2-(dimethylamino)ethoxy)-3-bromophenethyl)-1H-1,2,3-triazol-4-yl)butyl)-1H-1,2,3-triazol-1-yl)ethyl)-2-bromophenoxy)-N,N-dimethylethanamine], the results for the activity at 200 µM (in experiment [1]; in experiment [3]; with Paracoccus sp. (4M6)) were 58.4 ± 4.3%, 61.5 ± 1% and 57.4 ± 1.6%, respectively. For the same compound, the IE % in experiment [2] (0.1 ppm) stood at 39.96%; in experiment [2] (0.3 ppm) it was 89.62%; in experiment [2] (0.5 ppm), 91.95%; in experiment [2] (2 ppm) it was 95.63%; in experiment [2] (10 ppm) it was 97.30%.

As for `CN(C)CCCOc1ccc(CCn2cc(-c3ccc(-c4cn(CCc5ccc(OCCCN(C)C)cc5)nn4)cc3)nn2)cc1` [SA12, 3-(4-(2-(4-(4-(1-(4-(3-(dimethylamino)propoxy)phenethyl)-1H-1,2,3-triazol-4-yl)phenyl)-1H-1,2,3-triazol-1-yl)ethyl)phenoxy)-N,N-dimethylpropan-1-amine], the activity at 200 µM came to 30 ± 21.9% in experiment [1]; 42.4 ± 8.6% in experiment [3]; 66.2 ± 2.8% in the experiment with Polaribacter sp. (TC5); 41 ± 4.1% in the experiment on Shewanella sp. (TC11); 14.3 ± 7.3% with Paracoccus sp. (4M6). The EC50 in experiment [1] amounted to 177 ± 80.1 µM; in experiment [3], 187 ± 16.5 µM; in the experiment on Shewanella sp. (TC11), 173 ± 22.4 µM; in the experiment on Paracoccus sp. (4M6) it was 73.2 ± 10.7 µM. Further, the IE % in experiment [2] (0.1 ppm) is listed as 39.30%; in experiment [2] (0.3 ppm), 69.97%; in experiment [2] (0.5 ppm), 94.65%; in experiment [2] (2 ppm), 96.89%; in experiment [2] (10 ppm) it was 95.73%.

For `COc1ccc(CCn2cc(CCCCc3cn(CCc4ccc(OC)c(Br)c4)nn3)nn2)cc1Br` [NT3, 1-(3-bromo-4-methoxyphenethyl)-4-(4-(1-(3-bromo-4-methoxyphenethyl)-1H-1,2,3-triazol-4-yl)butyl)-1H-1,2,3-triazole], the activity at 200 µM in experiment [1] came out at 56.9 ± 1.7%; in experiment [3] it was 53.3 ± 6.3%; with Paracoccus sp. (4M6), 50.9 ± 0.3%.

Regarding `CN(C)CCCOc1ccc(CCn2cc(CNCc3cn(CCc4ccc(OCCCN(C)C)c(Br)c4)nn3)nn2)cc1Br` [AS174], the results for the activity at 200 µM (in experiment [1]; in experiment [3]; with Paracoccus sp. (4M6)) were 55.4 ± 0.4%, 45 ± 0.8% and 56.3 ± 2.4%, respectively. The EC50 in experiment [1] came out at 185 ± 16.2 µM. The IE % in experiment [2] (0.1 ppm) is recorded as 53.41%; in experiment [2] (0.3 ppm), 87.00%; in experiment [2] (0.5 ppm), 91.72%; in experiment [2] (2 ppm) it was 95.98%; in experiment [2] (10 ppm) it was 97.17%.

In the case of `CN(C)CCOc1ccc(CCn2cc(CCCCCCc3cn(CCc4ccc(OCCN(C)C)c(Br)c4)nn3)nn2)cc1Br` [AS160, 2-(4-(2-(4-(6-(1-(4-(2-(dimethylamino)ethoxy)-3-bromophenethyl)-1H-1,2,3-triazol-4-yl)hexyl)-1H-1,2,3-triazol-1-yl)ethyl)-2-bromophenoxy)-N,N-dimethylethanamine], the activity at 200 µM in experiment [1] amounted to 54.3 ± 10.8%; in experiment [3] it was 67.4 ± 4%; with Paracoccus sp. (4M6), 59.5 ± 2.2%. Moreover, the IE % is recorded as 71.40% in experiment [2] (0.1 ppm); 92.14% in experiment [2] (0.3 ppm); 92.66% in experiment [2] (0.5 ppm); 96.06% in experiment [2] (2 ppm); 97.03% in experiment [2] (10 ppm).

As for `Oc1ccc(CCn2cc(COCc3cn(CCc4ccc(O)c(Br)c4)nn3)nn2)cc1Br` [NT26], the activity at 200 µM came out at 50.3 ± 5.79% in experiment [1], 40.2 ± 3.3% in experiment [3] and 47.8 ± 0.1% with Paracoccus sp. (4M6). The results for the EC50 (in experiment [1]; in experiment [3]; in the experiment on Paracoccus sp. (4M6)) were 195 ± 10.7 µM, 127 ± 27.5 µM and 198 ± 4.1 µM, respectively.

Take `CN(C)CCCOc1ccc(CCn2cc(CCCc3cn(CCc4ccc(OCCCN(C)C)c(Br)c4)nn3)nn2)cc1Br` [AS168, 3-(4-(2-(4-(3-(1-(4-(3-(dimethylamino)propoxy)-3-bromophenethyl)-1H-1,2,3-triazol-4-yl)propyl)-1H-1,2,3-triazol-1-yl)ethyl)-2-bromophenoxy)-N,N-dimethylpropan-1-amine]: the activity at 200 µM is 59.9 ± 6.4% in experiment [1], 53.8 ± 5.9% in experiment [3] and 77.1 ± 2.4% in the experiment with Paracoccus sp. (4M6).

Consider `CN(C)CCOc1ccc(CCn2cc(CCCc3cn(CCc4ccc(OCCN(C)C)c(Br)c4)nn3)nn2)cc1Br` [AS158], for which the activity at 200 µM amounted to 57 ± 2.2% in experiment [1], 55.8 ± 3.8% in experiment [3] and 51.5 ± 3% in the experiment on Paracoccus sp. (4M6). In addition, the IE % is listed as 53.41% in experiment [2] (0.1 ppm); 87.00% in experiment [2] (0.3 ppm); 91.72% in experiment [2] (0.5 ppm); 95.98% in experiment [2] (2 ppm); 97.17% in experiment [2] (10 ppm).

For `CN(C)CCCOc1ccc(CCn2cc(COCc3cn(CCc4ccc(OCCCN(C)C)c(Br)c4)nn3)nn2)cc1Br` [AS173, 3-(4-(2-(4-(((1-(4-(3-(dimethylamino)propoxy)-3-bromophenethyl)-1H-1,2,3-triazol-4-yl)methoxy)methyl)-1H-1,2,3-triazol-1-yl)ethyl)-2-bromophenoxy)-N,N-dimethylpropan-1-amine], the activity at 200 µM in experiment [1] came to 51.6 ± 1%; in experiment [3], 41.7 ± 1.6%; in the experiment with Paracoccus sp. (4M6), 53.7 ± 4%. The IE % is given as 46.78% in experiment [2] (0.1 ppm); 86.70% in experiment [2] (0.3 ppm); 92.47% in experiment [2] (0.5 ppm); 95.77% in experiment [2] (2 ppm); 97.95% in experiment [2] (10 ppm). Besides, in experiment [3], the EC50 was 122 ± 59.1 µM.

For `COc1ccc(Cn2cc(-c3ccc(-c4cn(Cc5ccc(OC)c(Br)c5)nn4)cc3)nn2)cc1Br` [SA8, 1-(3-bromo-4-methoxybenzyl)-4-(4-(1-(3-bromo-4-methoxybenzyl)-1H-1,2,3-triazol-4-yl)phenyl)-1H-1,2,3-triazole], the activity at 200 µM in experiment [1] worked out at 24.1 ± 2.6%; in experiment [3] it was 23.3 ± 3.8%; in the experiment with Polaribacter sp. (TC5), 38.3 ± 0.1%; in the experiment with Shewanella sp. (TC11) it was 16.4 ± 8%; in the experiment on Paracoccus sp. (4M6), 33.1 ± 4.4%. Besides, the EC50 in experiment [1] is 159 ± 28.5 µM; in experiment [3] it was 99.5 ± 4.5 µM; in the experiment on Polaribacter sp. (TC5) (read-out: EC50 (effective concentration to inhibit 50% of the adhesion)), 152 ± 6.7 µM; with Shewanella sp. (TC11), 122 ± 7.1 µM; with Paracoccus sp. (4M6), 163 ± 23.6 µM.

Take `COc1ccc(CCn2cc(CCCc3cn(CCc4ccc(OC)c(Br)c4)nn3)nn2)cc1Br` [NT10, 1-(3-bromo-4-methoxyphenethyl)-4-(3-(1-(3-bromo-4-methoxyphenethyl)-1H-1,2,3-triazol-4-yl)propyl)-1H-1,2,3-triazole]: the activity at 200 µM in experiment [1] came out at 50 ± 4.9%; in experiment [3], 50.4 ± 2.2%; with Paracoccus sp. (4M6), 49.2 ± 0.8%. In addition, the EC50 with Paracoccus sp. (4M6) came out at 182 ± 15.2 µM.

For `COc1ccc(CCn2cc(CNCc3cn(CCc4ccc(OC)c(Br)c4)nn3)nn2)cc1Br` [NT7, bis((1-(3-bromo-4-methoxyphenethyl)-1H-1,2,3-triazol-4-yl)methyl)amine], the activity at 200 µM in experiment [1] is 48.2 ± 2.1%; in experiment [3], 37.4 ± 0.1%; with Paracoccus sp. (4M6), 46.3 ± 2.7%. The EC50 stood at 188 ± 3 µM in experiment [1], 138 ± 8.7 µM in experiment [3] and 194 ± 8 µM with Paracoccus sp. (4M6).
